Consider 50 substances from patent US11214803B2, “Modulators of YAP1 expression” (Ionis Pharmaceuticals, Inc., priority 2019, dated 2022).

Strand notation (5' to 3'): a small letter for the sugar, then the base; units joined by * are phosphorothioate-linked, units joined directly phosphodiester-linked; [ ] holds rarer units or linkages, { } end groups; capitals alone tell only the bases. e = 2'-O-(2-methoxyethyl) (MOE); k = constrained ethyl (cEt); [5mC] = 5-methylcytosine; d = 2'-deoxy (DNA)

One data set deals with Yap1 mRNA. Briefly: Antisense inhibition of human Yap1 in SNU-449 cells by modified oligonucleotides, single dose (Example 5, RTS36584). The following applies: Table 44 experiment; SNU-449 cells, 10,000 cells per well, free uptake, 2,000 nM, approximately 48 hours; RTS36584; Yap1 mRNA normalized to RIBOGREEN, relative to untreated control cells. Type of data set: cell-based. Put shortly:
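Values are Yap1 mRNA as percent of untreated control cells, measured by quantitative real-time RT-PCR using RTS36584 and normalised to total RNA by RIBOGREEN. Cells were SNU-449, dosed by free uptake at 2,000 nM for approximately 48 hours.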
Consider “1198890 (kT*kG*dT*d[5mC]*dT*d[5mC]*dA*dT*dG*d[5mC]*d[5mC]*kT*dT*kA*dT*kA) [Compound 1198890]”, for which the “YAP1 (% UTC)” value is on record as 19 % UTC.

On to “1198891 (kA*kT*dT*dG*dT*d[5mC]*dT*d[5mC]*dA*dT*dG*k[5mC]*d[5mC]*kT*dT*kA) [Compound 1198891]”, for which the “YAP1 (% UTC)” value is given as 18 % UTC.

On to “1198892 (kA*kA*dT*dT*dG*dT*d[5mC]*dT*d[5mC]*dA*dT*kG*d[5mC]*k[5mC]*dT*kT) [Compound 1198892]”, for which the “YAP1 (% UTC)” value stood at 24 % UTC.

As for “1198899 (kA*kG*dT*dA*dT*dG*dT*dG*dG*d[5mC]*dA*kA*dT*kA*dA*kT) [Compound 1198899]”, the “YAP1 (% UTC)” value is 75 % UTC.

On to “1198900 (kA*kG*dA*dG*dT*dA*dT*dG*dT*dG*dG*k[5mC]*dA*kA*dT*kA; antisense) [Compound 1198900]”, for which the “YAP1 (% UTC)” value is 11 % UTC.

Turning to “1198901 (kT*kA*dG*dA*dG*dT*dA*dT*dG*dT*dG*kG*d[5mC]*kA*dA*kT; antisense) [Compound 1198901]”, the “YAP1 (% UTC)” value was found to be 28 % UTC.

Take “1198902 (kT*kT*dA*dG*dA*dG*dT*dA*dT*dG*dT*kG*dG*k[5mC]*dA*kA; antisense) [Compound 1198902]”: the “YAP1 (% UTC)” value turned out to be 13 % UTC.

In the case of “1198903 (kA*kT*dT*dA*dG*dA*dG*dT*dA*dT*dG*kT*dG*kG*d[5mC]*kA; antisense) [Compound 1198903]”, the “YAP1 (% UTC)” value was 24 % UTC.

Regarding “1198904 (kT*kA*dT*dT*dA*dG*dA*dG*dT*dA*dT*kG*dT*kG*dG*k[5mC]; antisense) [Compound 1198904]”, the “YAP1 (% UTC)” value is listed as 12 % UTC.

As to “1198905 (kA*kT*dA*dT*dT*dA*dG*dA*dG*dT*dA*kT*dG*kT*dG*kG; antisense) [Compound 1198905]”, the “YAP1 (% UTC)” value worked out at 5 % UTC.

As to “1198906 (kT*kA*dT*dA*dT*dT*dA*dG*dA*dG*dT*kA*dT*kG*dT*kG; antisense) [Compound 1198906]”, the “YAP1 (% UTC)” value is listed as 56 % UTC.

In the case of “1198907 (kT*k[5mC]*dT*dA*dT*dA*dT*dT*dA*dG*dA*kG*dT*kA*dT*kG; antisense) [Compound 1198907]”, the “YAP1 (% UTC)” value was determined as 74 % UTC.

The same data set, now with this note: Table 45; Yap1 mRNA as percent of untreated control, SNU-449 cells, single dose.
For the substance “1198893 (kA*kA*dA*dT*dT*dG*dT*d[5mC]*dT*d[5mC]*dA*kT*dG*k[5mC]*d[5mC]*kT; antisense) [Compound 1198893]”, the “YAP1 (% UTC)” value is given as 58 % UTC.

On to “1198894 (kG*kA*dA*dA*dT*dT*dG*dT*d[5mC]*dT*d[5mC]*kA*dT*kG*d[5mC]*k[5mC]; antisense) [Compound 1198894]”, for which the “YAP1 (% UTC)” value came to 57 % UTC.

Consider “1198895 (kG*kG*dA*dA*dA*dT*dT*dG*dT*d[5mC]*dT*k[5mC]*dA*kT*dG*k[5mC]; antisense) [Compound 1198895]”, for which the “YAP1 (% UTC)” value turned out to be 22 % UTC.

Take “1198896 (kT*kG*dG*dA*dA*dA*dT*dT*dG*dT*d[5mC]*kT*d[5mC]*kA*dT*kG; antisense) [Compound 1198896]”: the “YAP1 (% UTC)” value is given as 59 % UTC.

With “1198897 (kA*kT*dG*dG*dA*dA*dA*dT*dT*dG*dT*k[5mC]*dT*k[5mC]*dA*kT; antisense) [Compound 1198897]”, the “YAP1 (% UTC)” value came to 61 % UTC.

As to “1198898 (kA*kT*dA*dT*dG*dG*dA*dA*dA*dT*dT*kG*dT*k[5mC]*dT*k[5mC]; antisense) [Compound 1198898]”, the “YAP1 (% UTC)” value was found to be 53 % UTC.

On to “1198908 (kT*kA*dT*dA*dA*d[5mC]*dT*dG*dG*dG*d[5mC]*kA*dA*kA*dT*kT; antisense) [Compound 1198908]”, for which the “YAP1 (% UTC)” value is 124 % UTC.

Turning to “1198909 (kG*kG*dT*dA*dT*dA*dA*d[5mC]*dT*dG*dG*kG*d[5mC]*kA*dA*kA; antisense) [Compound 1198909]”, the “YAP1 (% UTC)” value is 56 % UTC.

With “1198910 (kA*kG*dG*dT*dA*dT*dA*dA*d[5mC]*dT*dG*kG*dG*k[5mC]*dA*kA; antisense) [Compound 1198910]”, the “YAP1 (% UTC)” value is listed as 40 % UTC.

As for “1198911 (kG*kA*dG*dG*dT*dA*dT*dA*dA*d[5mC]*dT*kG*dG*kG*d[5mC]*kA; antisense) [Compound 1198911]”, the “YAP1 (% UTC)” value came out at 26 % UTC.

“1198912 (kA*kA*d[5mC]*dA*d[5mC]*dT*dG*dA*dG*dG*dT*kA*dT*kA*dA*k[5mC]; antisense) [Compound 1198912]”: the “YAP1 (% UTC)” value was determined as 78 % UTC.

“1198913 (kT*kT*dA*d[5mC]*dA*dT*dT*dA*dG*dG*dA*kA*d[5mC]*kA*dA*kG; antisense) [Compound 1198913]”: the “YAP1 (% UTC)” value turned out to be 86 % UTC.

For the substance “1198914 (kT*kT*dT*dT*dA*d[5mC]*dA*dT*dT*dA*dG*kG*dA*kA*d[5mC]*kA; antisense) [Compound 1198914]”, the “YAP1 (% UTC)” value is reported as 68 % UTC.

As for “1198915 (k[5mC]*kT*dT*dT*dT*dA*d[5mC]*dA*dT*dT*dA*kG*dG*kA*dA*k[5mC]; antisense) [Compound 1198915]”, the “YAP1 (% UTC)” value was 37 % UTC.

Take “1198916 (kA*k[5mC]*dT*dT*dT*dT*dA*d[5mC]*dA*dT*dT*kA*dG*kG*dA*kA; antisense) [Compound 1198916]”: the “YAP1 (% UTC)” value was 59 % UTC.

As for “1198917 (k[5mC]*kA*d[5mC]*dT*dT*dT*dT*dA*d[5mC]*dA*dT*kT*dA*kG*dG*kA; antisense) [Compound 1198917]”, the “YAP1 (% UTC)” value was found to be 21 % UTC.

Turning to “1198918 (kG*k[5mC]*dA*d[5mC]*dT*dT*dT*dT*dA*d[5mC]*dA*kT*dT*kA*dG*kG) [Compound 1198918]”, the “YAP1 (% UTC)” value came to 27 % UTC.

As for “1198919 (A_{ks}G^{m}C_{ds}A_{ds}^{m}C_{ds}T_{ds}T_{ds}T_{ds}T_{ds}A_{ds}^{m}C_{ds}A_{ks}T_{ds}T_{ks}A_{ds}G_{k}; modified gapmer, phosphorothioate, as printed in the source, key not given here) [Compound 1198919]”, the “YAP1 (% UTC)” value stood at 60 % UTC.

Turning to “1198920 (kA*kA*dG*d[5mC]*dA*d[5mC]*dT*dT*dT*dT*dA*k[5mC]*dA*kT*dT*kA; antisense) [Compound 1198920]”, the “YAP1 (% UTC)” value is given as 54 % UTC.

“1198921 (kT*kT*dA*dA*dG*d[5mC]*dA*d[5mC]*dT*dT*dT*kT*dA*k[5mC]*dA*kT; antisense) [Compound 1198921]”: the “YAP1 (% UTC)” value is listed as 89 % UTC.

For the substance “1198922 (kG*kG*dA*dA*dG*dA*dT*d[5mC]*dT*dG*dA*kA*dA*k[5mC]*dT*k[5mC]; antisense) [Compound 1198922]”, the “YAP1 (% UTC)” value came out at 59 % UTC.

For “1198923 (kT*kT*dG*dG*dA*dA*dG*dA*dT*d[5mC]*dT*kG*dA*kA*dA*k[5mC]; antisense) [Compound 1198923]”, the “YAP1 (% UTC)” value is given as 73 % UTC.

In the case of “1198924 (kT*kT*dT*dG*dG*dA*dA*dG*dA*dT*d[5mC]*kT*dG*kA*dA*kA; antisense) [Compound 1198924]”, the “YAP1 (% UTC)” value was determined as 75 % UTC.

Take “1198925 (k[5mC]*kT*dT*dT*dG*dG*dA*dA*dG*dA*dT*k[5mC]*dT*kG*dA*kA; antisense) [Compound 1198925]”: the “YAP1 (% UTC)” value was 52 % UTC.

The same data set, now with this note: Table 46; Yap1 mRNA as percent of untreated control, SNU-449 cells, single dose.
For “1198881 (kT*kA*dA*dG*dG*dT*dT*dT*d[5mC]*d[5mC]*d[5mC]*kA*eG*kA*eT*kT; antisense) [Compound 1198881]”, the “YAP1 (% UT)” value is recorded as 36 % UT.

With “1198882 (kA*kG*dT*dA*dA*dG*dG*dT*dT*dT*d[5mC]*k[5mC]*e[5mC]*kA*eG*kA; antisense) [Compound 1198882]”, the “YAP1 (% UT)” value turned out to be 56 % UT.

With “1198883 (kA*kA*dG*dT*dA*dA*dG*dG*dT*dT*dT*k[5mC]*e[5mC]*k[5mC]*eA*kG; antisense) [Compound 1198883]”, the “YAP1 (% UT)” value is 47 % UT.

As for “1198884 (kT*kA*dA*dG*dT*dA*dA*dG*dG*dT*dT*kT*e[5mC]*k[5mC]*e[5mC]*kA; antisense) [Compound 1198884]”, the “YAP1 (% UT)” value came out at 28 % UT.

Turning to “1198885 (k[5mC]*kT*dA*dA*dG*dT*dA*dA*dG*dG*dT*kT*eT*k[5mC]*e[5mC]*k[5mC]; antisense) [Compound 1198885]”, the “YAP1 (% UT)” value is 41 % UT.

For “1198886 (kA*k[5mC]*dT*dA*dA*dG*dT*dA*dA*dG*dG*kT*eT*kT*e[5mC]*k[5mC]; antisense) [Compound 1198886]”, the “YAP1 (% UT)” value was 45 % UT.

For “1198887 (kG*kA*d[5mC]*dT*dA*dA*dG*dT*dA*dA*dG*kG*eT*kT*eT*k[5mC]; antisense) [Compound 1198887]”, the “YAP1 (% UT)” value is 71 % UT.

As to “1198888 (kA*kG*dA*d[5mC]*dT*dA*dA*dG*dT*dA*dA*kG*eG*kT*eT*kT; antisense) [Compound 1198888]”, the “YAP1 (% UT)” value was determined as 51 % UT.

As to “1198889 (kT*kT*dA*dG*dA*d[5mC]*dT*dA*dA*dG*dT*kA*eA*kG*eG*kT; antisense) [Compound 1198889]”, the “YAP1 (% UT)” value was 27 % UT.

The same data set, now with this note: Yap1 mRNA, percent of untreated control; modified oligonucleotides targeting SEQ ID NO: 1 and 2; Table 47.
Consider “1198876 (kT*kA*dA*dA*dG*dT*dG*dT*dA*dT*dG*kT*e[5mC]*kA*eG*kA; antisense) [Compound 1198876]”, for which the “YAP1 (% UT)” value is given as 31 % UT.

For the substance “1198877 (kT*kT*dA*dA*dA*dG*dT*dG*dT*dA*dT*kG*eT*k[5mC]*eA*kG; antisense) [Compound 1198877]”, the “YAP1 (% UT)” value is 11 % UT.

As to “1198878 (kT*kT*dT*dA*dA*dA*dG*dT*dG*dT*dA*kT*eG*kT*e[5mC]*kA; antisense) [Compound 1198878]”, the “YAP1 (% UT)” value is listed as 42 % UT.

With “1198879 (k[5mC]*kT*dT*dT*dA*dA*dA*dG*dT*dG*dT*kA*eT*kG*eT*k[5mC]; antisense) [Compound 1198879]”, the “YAP1 (% UT)” value is listed as 29 % UT.

For “1198880 (kA*kA*d[5mC]*dT*dT*dT*dA*dA*dA*dG*dT*kG*eT*kA*eT*kG; antisense) [Compound 1198880]”, the “YAP1 (% UT)” value is recorded as 98 % UT.
